Experimental data published in publication PMC12176259, “Bacterial transcriptional repressor NrdR – a flexible multifactorial nucleotide sensor” (The Febs Journal, 2025).

Tests used:
E. coli NrdR (EcoNrdR) [1] = biological target: T1, E. coli NrdR (EcoNrdR) (Escherichia coli, UniProt P0A8D0); assay: ITC, one set of sites; format: binding
T1 construct: full-length wild type, C-terminal His6 tag (pET30a(+)), E. coli BL21(DE3); tag not reported removed; co-purified nucleotides stripped for ITC (apo-NrdR); apo dimer, tetramer with ATP-dATP or ADP-dATP; SeMet version for 9FVR
T1 sequence (P0A8D0 whole entry): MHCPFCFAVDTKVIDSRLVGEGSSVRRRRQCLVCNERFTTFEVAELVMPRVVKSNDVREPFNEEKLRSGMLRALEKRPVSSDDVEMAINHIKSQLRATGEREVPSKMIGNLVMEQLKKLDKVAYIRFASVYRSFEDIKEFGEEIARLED
Source text: ITC, one set of sites on E. coli NrdR (EcoNrdR)

E. coli NrdR (EcoNrdR) [2] = biological target: T1, E. coli NrdR (EcoNrdR); assay: X-ray crystal structure, […] Å; format: binding; details: with dATP and Mg2+; inner site

| Kd (E. coli NrdR (EcoNrdR) [1]) [µM] | SMILES | X-ray crystal structure, 2.33 Å (E. coli NrdR (EcoNrdR) [2]) |
| --- | --- | --- |
| 0.343 ± 0.019 | Nc1ncnc2c1ncn2[C@@H]1O[C@H](COP(=O)(O)OP(=O)(O)O)[C@@H](O)[C@H]1O [ADP] | – |
| – | Nc1ncnc2c1ncn2[C@@H]1O[C@H](COP(=O)(O)OP(=O)(O)NP(=O)(O)O)[C@@H](O)[C@H]1O [AMPPNP] | In complex with dATP and AMPPNP, EcoNrdR is a tetramer |
| 0.346 ± 0.093 | Nc1ncnc2c1ncn2[C@@H]1O[C@H](COP(=O)(O)OP(=O)(O)OP(=O)(O)O)[C@@H](O)[C@H]1O [ATP] | – |
| 0.61 ± 0.231 | Nc1ncnc2c1ncn2[C@H]1C[C@H](O)[C@@H](COP(=O)(O)OP(=O)(O)OP(=O)(O)O)O1 [dATP] | – |
